From ChEMBL document CHEMBL3352297, “Structure based virtual screening of MDPI database: discovery of structurally diverse and novel DPP-IV inhibitors” (Bioorg Med Chem Lett, 2014)
Calls of active or inactive are those of the source. No cut-off for these calls is given here.

Columns and labels:
Dipeptidyl peptidase 4 = Dipeptidyl peptidase 4 (Homo sapiens, UniProt P27487); test: Inhibition of human DPP-4 using H-Gly-Pro-para-Nitroanilide as substrate incubated for 20 mins prior to substrate addition measured after 30 mins by spectrophotometry
Rattus norvegicus = test: Suppression of blood glucose level in Wistar rat at 30 mg/kg, po measured 30 to 120 mins post dextrose challenge by oral glucose tolerance test; type: functional, organism-based; parameters: dose 30 mg/kg

Chain of Dipeptidyl peptidase 4 (P27487 whole entry): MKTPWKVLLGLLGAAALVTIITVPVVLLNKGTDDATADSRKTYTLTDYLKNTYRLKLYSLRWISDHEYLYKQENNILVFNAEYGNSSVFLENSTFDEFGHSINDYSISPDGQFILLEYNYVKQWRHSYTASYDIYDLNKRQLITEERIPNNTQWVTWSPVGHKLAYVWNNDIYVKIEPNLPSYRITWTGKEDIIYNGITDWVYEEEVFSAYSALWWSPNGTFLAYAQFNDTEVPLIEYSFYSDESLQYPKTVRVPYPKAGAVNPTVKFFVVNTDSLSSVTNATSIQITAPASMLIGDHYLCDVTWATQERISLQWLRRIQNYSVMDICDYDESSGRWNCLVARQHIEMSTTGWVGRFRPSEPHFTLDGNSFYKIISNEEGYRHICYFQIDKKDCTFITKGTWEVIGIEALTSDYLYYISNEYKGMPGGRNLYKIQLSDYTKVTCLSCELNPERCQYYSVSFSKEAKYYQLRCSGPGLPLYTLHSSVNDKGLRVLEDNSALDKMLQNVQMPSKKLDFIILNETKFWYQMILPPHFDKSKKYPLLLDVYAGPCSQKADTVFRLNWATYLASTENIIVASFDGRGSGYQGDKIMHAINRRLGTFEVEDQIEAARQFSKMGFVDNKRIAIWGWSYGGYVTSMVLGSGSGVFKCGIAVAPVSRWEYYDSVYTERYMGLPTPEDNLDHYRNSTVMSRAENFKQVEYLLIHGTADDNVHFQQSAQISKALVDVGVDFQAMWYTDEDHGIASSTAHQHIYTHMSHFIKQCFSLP

Molecule: Cc1ccc(=N)n(Cc2cccc(F)c2)c1
- IC50 (Dipeptidyl peptidase 4; read-out: IC50): 34.6 µM

Molecule: N=CC(C(=O)c1ccccc1)c1ccccc1 (stereo not drawn)
- IC50 (Dipeptidyl peptidase 4; read-out: IC50): > 100 µM

Molecule: CCn1c(=O)c(C(C)(NN)Nc2ccc(C)cc2)c(O)c2ccccc21 (stereo not drawn)
- IC50 (Dipeptidyl peptidase 4; read-out: IC50): 2.95 µM
- Activity (Rattus norvegicus): Active

Molecule: CN(C)c1ccc(C(N)CC(=O)c2c(O)c3ccccc3n(C)c2=O)cc1 (stereo not drawn)
- IC50 (Dipeptidyl peptidase 4): ND(Insoluble)

Molecule: Cn1c(=O)c(C(C)(NN)Nc2ccccc2)c(O)c2ccccc21 (stereo not drawn)
- IC50 (Dipeptidyl peptidase 4; read-out: IC50): 0.73 µM
- Activity (Rattus norvegicus): Active

Molecule: 2,2-diphenylethanaminium tetrachloroaurate
- Activity (Rattus norvegicus): Active
